Laboratory results from patent US5530126A, “Process for the preparation of substituted 6-(pyrazol-3yl)-1,4-benzoxazin-3-ones” (Monsanto Company, priority 1994, dated 1996).

Legend:
Format in all cases: in vivo
Morningglory [1] = assay: Pre-emergence herbicide test; conditions: Ipomoea, read-out: % plant inhibition (Mogl); for inhibition at 11210 g/ha: 11.21 kg/ha
Protocol: (§1) The tests for pre-emergence herbicide activity are conducted as follows:
(§2) Topsoil is placed in an aluminum pan and compacted to a depth of 0.95 to 1.27 cm from the top of the pan. On the top of the soil is placed a predetermined number of seeds of each of several monocotyledonous and dicotyledonous annual plant species and/or vegetative propagules of various perennial plant species. A known amount of the active ingredient dissolved or suspended in an organic solvent, e.g., acetone, or water as carrier is then applied directly to the seed bed, which is then covered with a layer of untreated topsoil to level fill the pan. After treatment, the pans are moved to a greenhouse bench where they are watered from below as needed to give adequate moisture for germination and growth.
(§3) Approximately 10-14 days (usually 11 days) after seeding and treating, the pans are observed and the results (% inhibition) are recorded.
(§4) Tables 7 and 7A below summarize the results of the pre-emergence herbicidal activity tests of compounds of this invention in weeds. The herbicidal rating shown in these tables is the percent inhibition of each plant species. The plant species usually regarded as weeds which are utilized in one set of tests, the data for which are shown in the tables, are identified by letter headings above the columns in accordance with the following legend: […]

Velvetleaf [2] = assay: Pre-emergence herbicide test; conditions: Abutilon theophrasti, read-out: % plant inhibition (Vele); for inhibition at 11210 g/ha: 11.21 kg/ha
Protocol: as §1, §2, §3, §4

Wild buckwheat [3] = assay: Pre-emergence herbicide test; conditions: Fallopia convolvulus, read-out: % plant inhibition (Wibw); for inhibition at 11210 g/ha: 11.21 kg/ha
Protocol: as §1, §2, §3, §4

Cocklebur [4] = assay: Pre-emergence herbicide test; conditions: Xanthium strumarium, read-out: % plant inhibition (Cobu); for inhibition at 11210 g/ha: 11.21 kg/ha
Protocol: as §1, §2, §3, §4

Seedling johnsongrass [5] = assay: Pre-emergence herbicide test; conditions: Sorghum halepense, read-out: % plant inhibition (Sejg); for inhibition at 11210 g/ha: 11.21 kg/ha
Protocol: as §1, §2, §3, §4

Annual bluegrass [6] = assay: Pre-emergence herbicide test; conditions: read-out: % plant inhibition (Anbg); for inhibition at 11210 g/ha: 11.21 kg/ha
Protocol: as §1, §2, §3, §4

Downy Brome [7] = assay: Pre-emergence herbicide test; conditions: Bromus tectorum, read-out: % plant inhibition (Dobr); for inhibition at 11210 g/ha: 11.21 kg/ha
Protocol: as §1, §2, §3, §4

Barnyardgrass [8] = assay: Pre-emergence herbicide test; conditions: Echinochloa crus-galli, read-out: % plant inhibition (Bygr); for inhibition at 11210 g/ha: 11.21 kg/ha
Protocol: as §1, §2, §3, §4

Indian Mustard [9] = assay: Pre-emergence herbicide test; conditions: Brassica juncea, read-out: % plant inhibition (Inmu); for inhibition at 11210 g/ha: 11.21 kg/ha
Protocol: as §1, §2, §3, §4

Yellow nutsedge [10] = assay: Pre-emergence herbicide test; conditions: Cyperus, read-out: % plant inhibition (Yens); for inhibition at 11210 g/ha: 11.21 kg/ha
Protocol: as §1, §2, §3, §4

Morningglory [11] = assay: Post-emergence herbicide test; conditions: Ipomoea, read-out: % plant inhibition (Mogl); for inhibition at 11210 g/ha: 11.21 kg/ha
Source text: (§5) Topsoil is placed in aluminum pans having holes in the bottom and compacted to a depth of 0.95 to 1.27 cm from the top of the pan. A predetermined number of seeds of each of several dicotyledonous and monocotyledonous annual plant species and/or vegetative propagules for the perennial plant species are placed on the soil and pressed into the soil surface. The seeds and/or vegetative propagules are covered with soil and leveled. The pans are then placed on a bench in the greenhouse and watered from below as needed. After the plants reach the desired age (two to three weeks), each pan, is removed individually to a spraying chamber and sprayed by means of an atomizer, operating at a spray pressure of 170.3 kPa (10 psig) at the application rates noted. In the spray solution is an amount of an emulsifying agent mixture to give a spray solution or suspension which contains about 0.4% by volume of the emulsifier. The spray solution or suspension contains a sufficient amount of the candidate chemical in order to give application rates of the active ingredient corresponding to those shown in Tables 8 and 8A, while applying a total amount of solution or suspension equivalent to 1870 L/Ha (200 gallons/acre). The pans were returned to the greenhouse and watered as before and the injury to the plants as compared to the control is observed at approximately 10-14 days (usually 11 days) and in some instances observed again at 24-28 days (usually 25 days) after spraying. The post-emergent herbicidal activity shown in these tables is the percent inhibition of each plant species.

Velvetleaf [12] = assay: Post-emergence herbicide test; conditions: Abutilon theophrasti, read-out: % plant inhibition (Vele); for inhibition at 11210 g/ha: 11.21 kg/ha
Source text: as §5

Wild buckwheat [13] = assay: Post-emergence herbicide test; conditions: Fallopia convolvulus, read-out: % plant inhibition (Wibw); for inhibition at 11210 g/ha: 11.21 kg/ha
Source text: as §5

Cocklebur [14] = assay: Post-emergence herbicide test; conditions: Xanthium strumarium, read-out: % plant inhibition (Cobu); for inhibition at 11210 g/ha: 11.21 kg/ha
Source text: as §5

Seedling johnsongrass [15] = assay: Post-emergence herbicide test; conditions: Sorghum halepense, read-out: % plant inhibition (Sejg); for inhibition at 11210 g/ha: 11.21 kg/ha
Source text: as §5

Annual bluegrass [16] = assay: Post-emergence herbicide test; conditions: read-out: % plant inhibition (Anbg); for inhibition at 11210 g/ha: 11.21 kg/ha
Source text: as §5

Downy Brome [17] = assay: Post-emergence herbicide test; conditions: Bromus tectorum, read-out: % plant inhibition (Dobr); for inhibition at 11210 g/ha: 11.21 kg/ha
Source text: as §5

Barnyardgrass [18] = assay: Post-emergence herbicide test; conditions: Echinochloa crus-galli, read-out: % plant inhibition (Bygr); for inhibition at 11210 g/ha: 11.21 kg/ha
Source text: as §5

Indian Mustard [19] = assay: Post-emergence herbicide test; conditions: Brassica juncea, read-out: % plant inhibition (Inmu); for inhibition at 11210 g/ha: 11.21 kg/ha
Source text: as §5

Yellow nutsedge [20] = assay: Post-emergence herbicide test; conditions: Cyperus, read-out: % plant inhibition (Yens); for inhibition at 11210 g/ha: 11.21 kg/ha
Source text: as §5

Compound | inhibition at 11210 g/ha (Morningglory [1]) | inhibition at 11210 g/ha (Velvetleaf [2]) | inhibition at 11210 g/ha (Wild buckwheat [3]) | inhibition at 11210 g/ha (Cocklebur [4]) | inhibition at 11210 g/ha (Seedling johnsongrass [5]) | inhibition at 11210 g/ha (Annual bluegrass [6]) | inhibition at 11210 g/ha (Downy Brome [7]) | inhibition at 11210 g/ha (Barnyardgrass [8]) | inhibition at 11210 g/ha (Indian Mustard [9]) | inhibition at 11210 g/ha (Yellow nutsedge [10]) | inhibition at 11210 g/ha (Morningglory [11]) | inhibition at 11210 g/ha (Velvetleaf [12]) | inhibition at 11210 g/ha (Wild buckwheat [13]) | inhibition at 11210 g/ha (Cocklebur [14]) | inhibition at 11210 g/ha (Seedling johnsongrass [15]) | inhibition at 11210 g/ha (Annual bluegrass [16]) | inhibition at 11210 g/ha (Downy Brome [17]) | inhibition at 11210 g/ha (Barnyardgrass [18]) | inhibition at 11210 g/ha (Indian Mustard [19]) | inhibition at 11210 g/ha (Yellow nutsedge [20]) | also measured
Cn1nc(C(F)(F)F)c(Cl)c1-c1ccc(F)cc1F [Compound 75] | 90% | 80% | 50% | 10% | 50% | 0% | 20% | 20% | 30% | 20% | 10% | 0% | 60% | 0% | 0% | 0% | 0% | 0% | 0% | 0% | –
C#CCOc1cc(-c2c(Cl)c(C(F)(F)F)nn2C)c(F)cc1Cl [Compound 76] | – | – | – | – | – | – | – | – | – | – | – | – | – | – | – | – | – | – | – | – | inhibition at 1120 g/ha (Morningglory [1]; 1.12 kg/ha): 40%; inhibition at 1120 g/ha (Velvetleaf [2]; 1.12 kg/ha): 50%; inhibition at 1120 g/ha (Wild buckwheat [3]; 1.12 kg/ha): 100%; inhibition at 1120 g/ha (Cocklebur [4]; 1.12 kg/ha): 20%; inhibition at 1120 g/ha (Seedling johnsongrass [5]; 1.12 kg/ha): 0%; inhibition at 1120 g/ha (Annual bluegrass [6]; 1.12 kg/ha): 10%; inhibition at 1120 g/ha (Downy Brome [7]; 1.12 kg/ha): 10%; inhibition at 1120 g/ha (Barnyardgrass [8]; 1.12 kg/ha): 0%; inhibition at 1120 g/ha (Indian Mustard [9]; 1.12 kg/ha): 60%; inhibition at 1120 g/ha (Yellow nutsedge [10]; 1.12 kg/ha): 0%; inhibition at 1120 g/ha (Morningglory [11]; 1.12 kg/ha): 50%; inhibition at 1120 g/ha (Velvetleaf [12]; 1.12 kg/ha): 90%; inhibition at 1120 g/ha (Wild buckwheat [13]; 1.12 kg/ha): 100%; inhibition at 1120 g/ha (Cocklebur [14]; 1.12 kg/ha): 40%; inhibition at 1120 g/ha (Seedling johnsongrass [15]; 1.12 kg/ha): 40%; inhibition at 1120 g/ha (Annual bluegrass [16]; 1.12 kg/ha): 40%; inhibition at 1120 g/ha (Downy Brome [17]; 1.12 kg/ha): 30%; inhibition at 1120 g/ha (Barnyardgrass [18]; 1.12 kg/ha): 50%; inhibition at 1120 g/ha (Indian Mustard [19]; 1.12 kg/ha): 70%; inhibition at 1120 g/ha (Yellow nutsedge [20]; 1.12 kg/ha): 10%
Cn1nc(C(F)(F)F)c(Cl)c1-c1cc([N+](=O)[O-])c(F)cc1F [Compound 77] | 0% | 30% | 20% | 0% | 40% | 80% | 10% | 30% | 30% | 0% | 10% | 30% | 60% | 20% | 20% | 20% | 0% | 20% | 60% | 0% | –
COc1cc(F)c(-c2c(Cl)c(C(F)(F)F)nn2C)cc1[N+](=O)[O-] [Compound 78] | 0% | 0% | 0% | 0% | 0% | 0% | 0% | 0% | 0% | 0% | 10% | 40% | 30% | 10% | 10% | 0% | 10% | 0% | 40% | 0% | –
